Measured values from ChEMBL document CHEMBL1201862, “PubChem BioAssay data set” (2004).
Blank lines part the entries; values can stand above or below the molecule they belong to. Calls of active or inactive are those of the source.

Assays:
[1] = target: T1, Rac GTPase-activating protein 1 (Homo sapiens, UniProt Q9H0H5); assay: blockers of MgcRacGAP-driven Rac1 GTP hydrolysis – biochemical, ADP Hunter fluorescence, primary and confirmatory, confirmation (AID 624330); assay type: functional
T1 sequence (Q9H0H5 whole entry): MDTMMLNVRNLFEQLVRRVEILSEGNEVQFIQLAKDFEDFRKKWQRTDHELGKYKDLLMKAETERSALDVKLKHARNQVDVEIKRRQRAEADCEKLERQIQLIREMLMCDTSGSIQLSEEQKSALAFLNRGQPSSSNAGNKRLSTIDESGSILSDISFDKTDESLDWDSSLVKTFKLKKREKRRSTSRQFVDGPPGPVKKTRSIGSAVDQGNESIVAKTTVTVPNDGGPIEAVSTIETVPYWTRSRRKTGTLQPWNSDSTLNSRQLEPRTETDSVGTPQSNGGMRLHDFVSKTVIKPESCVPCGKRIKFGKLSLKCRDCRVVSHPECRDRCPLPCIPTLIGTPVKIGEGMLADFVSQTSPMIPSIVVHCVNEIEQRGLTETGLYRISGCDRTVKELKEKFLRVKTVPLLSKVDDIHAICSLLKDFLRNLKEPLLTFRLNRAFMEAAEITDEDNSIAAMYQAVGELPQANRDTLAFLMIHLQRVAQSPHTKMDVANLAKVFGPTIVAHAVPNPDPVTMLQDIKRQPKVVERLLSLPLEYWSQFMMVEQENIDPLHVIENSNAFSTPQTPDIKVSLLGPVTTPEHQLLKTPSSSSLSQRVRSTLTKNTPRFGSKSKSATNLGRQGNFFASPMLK

[2] = viability loss in HeLa cells – cytotoxicity control for MgcRacGAP inhibitor project, dose response (AID 624300); assay type: functional
[3] = target: T2, Oxysterols receptor LXR-beta (Homo sapiens, UniProt P55055); assay type: functional, cell-based;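 also: agonist activity at LXR measured by a cell-based luminescence readout across a dose range, run as a counterscreen for daf-12 agonists; HEK293 cells with Gal4-LXR fusion and GAL4-driven luciferase reporter; potency for activation of Gal4-LXR reporter so compounds are agonists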
T2 sequence (P55055 whole entry): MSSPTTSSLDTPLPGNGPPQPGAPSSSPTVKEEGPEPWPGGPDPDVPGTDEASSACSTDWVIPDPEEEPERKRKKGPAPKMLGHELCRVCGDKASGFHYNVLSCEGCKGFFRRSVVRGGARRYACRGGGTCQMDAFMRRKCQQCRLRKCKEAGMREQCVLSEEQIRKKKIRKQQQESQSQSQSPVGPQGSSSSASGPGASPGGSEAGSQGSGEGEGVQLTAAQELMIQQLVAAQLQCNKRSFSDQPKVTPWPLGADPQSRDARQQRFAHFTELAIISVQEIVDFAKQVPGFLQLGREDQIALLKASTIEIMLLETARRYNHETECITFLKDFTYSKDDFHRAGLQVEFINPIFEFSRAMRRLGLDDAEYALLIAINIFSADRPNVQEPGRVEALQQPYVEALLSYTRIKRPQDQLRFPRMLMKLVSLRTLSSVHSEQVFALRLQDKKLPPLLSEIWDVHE

[4] = NIH-3T3 fibroblast cytotoxicity, dose response, cytotoxicity control, cell-based, fluorescence, Alamar Blue, secondary assay (AID 2327); assay type: functional;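 also: NIH-3T3 mouse fibroblasts cultured with fluconazole at 8 µg/mL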
[5] = NIH3T3 cell viability loss – ATP luminescence, mouse fibroblasts, counter-screen, dose response (AID 2010); assay type: functional, cell-based;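 also: cells exposed to compound for about 90 hours before reading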
[6] = Trypanosoma cruzi growth suppression in host cells – NIH3T3 host cells, beta-gal luminescence, confirmation (AID 2044); assay type: functional, cell-based;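 also: intracellular parasites grown in NIH/3T3 mouse fibroblasts as host cells; luminescent beta-galactosidase reporter signal from transgenic T. cruzi replicating inside host cells; inhibitors lower the luminescence signal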
[7] = fluconazole-exposed Candida albicans growth modulators – fluorescence, retest, confirmation (AID 2467); assay type: functional, cell-based
[8] = target: T3, Trace amine-associated receptor 1 (Homo sapiens, UniProt Q96RJ0); assay: Counterscreen for agonists of the human trace amine associated receptor 1 (hTAAR1): Fluorescence-based cell-based high throughput dose response assay to identify hTAAR1 agonist that also desensitize TAAR1 receptor response.; assay type: functional
T3 sequence (Q96RJ0 whole entry): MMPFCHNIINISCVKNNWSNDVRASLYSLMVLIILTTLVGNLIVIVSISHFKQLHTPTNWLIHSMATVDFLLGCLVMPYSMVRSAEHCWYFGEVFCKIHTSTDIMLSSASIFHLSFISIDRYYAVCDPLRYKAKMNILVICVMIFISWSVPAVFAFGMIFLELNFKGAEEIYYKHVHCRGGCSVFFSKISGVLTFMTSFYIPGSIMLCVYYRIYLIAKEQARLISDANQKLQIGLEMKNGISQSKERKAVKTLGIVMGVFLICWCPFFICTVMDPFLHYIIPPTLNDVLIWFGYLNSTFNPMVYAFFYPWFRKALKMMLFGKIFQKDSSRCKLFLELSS

[9] = cells; assay type: functional, cell-based
[10] = cells; assay type: functional, cell-based; remark: listed apart in the source
[11] = target: T3, Trace amine-associated receptor 1; assay: Fluorescence-based cell-based high throughput dose response assay to identify agonists of the human trace amine associated receptor 1 (TAAR1).; assay type: functional
[12] = target: T4, Leucine aminopeptidase (Plasmodium falciparum 3D7, UniProt Q8IL11); assay: P. falciparum M17LAP inhibitors, primary screen, biochemical, fluorogenic H-Leu-NHMec substrate, 1536-well (AID 1619); assay type: functional
T4 sequence (Q8IL11 whole entry): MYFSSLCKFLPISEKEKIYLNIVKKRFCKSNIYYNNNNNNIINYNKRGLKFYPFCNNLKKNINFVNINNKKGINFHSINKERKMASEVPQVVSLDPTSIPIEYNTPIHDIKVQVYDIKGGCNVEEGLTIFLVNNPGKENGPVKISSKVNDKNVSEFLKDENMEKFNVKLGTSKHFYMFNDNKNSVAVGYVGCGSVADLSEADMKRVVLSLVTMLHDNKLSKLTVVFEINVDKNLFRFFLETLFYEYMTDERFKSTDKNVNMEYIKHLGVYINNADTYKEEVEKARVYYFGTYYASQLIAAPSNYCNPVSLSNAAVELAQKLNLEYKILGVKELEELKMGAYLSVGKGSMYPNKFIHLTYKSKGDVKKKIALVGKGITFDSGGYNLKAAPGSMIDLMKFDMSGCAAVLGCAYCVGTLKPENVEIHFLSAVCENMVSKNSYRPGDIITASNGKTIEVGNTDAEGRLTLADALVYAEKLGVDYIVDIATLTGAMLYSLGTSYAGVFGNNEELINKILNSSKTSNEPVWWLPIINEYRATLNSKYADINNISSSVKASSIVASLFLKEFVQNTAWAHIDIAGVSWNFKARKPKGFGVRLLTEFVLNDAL

[13] = target: Large T antigen (Simian virus 40, UniProt P03070); assay type: functional, Betapolyomavirus macacae;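 also: Confirmatory-stage PubChem screen for compounds that inhibit SV40 T antigen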
[14] = target: T5, DNA repair and recombination protein RAD54-like (Homo sapiens, UniProt Q92698); assay: RAD54 Holliday junction migration blockers – biochemical, fluorescence, cherry-picked samples, dose series, confirmation (AID 651657); assay type: functional
T5 sequence (Q92698 whole entry): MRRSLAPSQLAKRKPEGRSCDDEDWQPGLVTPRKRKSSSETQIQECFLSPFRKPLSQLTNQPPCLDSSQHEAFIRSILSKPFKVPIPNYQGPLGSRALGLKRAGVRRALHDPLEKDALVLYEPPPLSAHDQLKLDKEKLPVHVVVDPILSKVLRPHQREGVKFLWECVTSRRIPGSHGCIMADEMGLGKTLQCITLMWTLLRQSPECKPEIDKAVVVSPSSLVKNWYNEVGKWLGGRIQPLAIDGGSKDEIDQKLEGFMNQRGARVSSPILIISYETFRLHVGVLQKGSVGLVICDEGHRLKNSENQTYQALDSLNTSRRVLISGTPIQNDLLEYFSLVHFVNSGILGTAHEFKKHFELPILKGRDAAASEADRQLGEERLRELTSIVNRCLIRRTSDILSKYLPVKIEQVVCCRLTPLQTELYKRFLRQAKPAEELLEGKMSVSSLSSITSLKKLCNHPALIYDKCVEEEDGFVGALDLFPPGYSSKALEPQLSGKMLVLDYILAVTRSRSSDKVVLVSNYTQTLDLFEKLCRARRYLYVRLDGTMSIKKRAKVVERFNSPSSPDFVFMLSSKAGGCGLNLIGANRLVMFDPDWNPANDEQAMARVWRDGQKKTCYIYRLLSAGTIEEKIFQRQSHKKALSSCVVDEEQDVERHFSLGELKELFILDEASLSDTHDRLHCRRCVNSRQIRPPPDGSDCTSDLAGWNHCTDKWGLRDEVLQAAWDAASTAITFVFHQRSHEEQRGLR

[15] = target: T6, Sentrin-specific protease 8 (Homo sapiens, UniProt Q96LD8); assay type: functional
T6 sequence (Q96LD8 whole entry): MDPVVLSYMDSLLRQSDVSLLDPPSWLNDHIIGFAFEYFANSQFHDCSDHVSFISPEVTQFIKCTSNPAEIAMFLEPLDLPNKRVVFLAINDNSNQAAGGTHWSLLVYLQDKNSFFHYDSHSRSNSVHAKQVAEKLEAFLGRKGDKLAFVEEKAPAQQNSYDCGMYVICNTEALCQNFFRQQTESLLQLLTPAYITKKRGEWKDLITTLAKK

[16] = target: T6, Sentrin-specific protease 8; assay type: functional; remark: listed apart in the source
[17] = target: T7, Heat shock factor protein 1 (Mus musculus, UniProt P38532); assay: enhancement of HSF1-driven luciferase signal – cell-based, NIH3T3, luminescence, dose retest, confirmation (AID 435004); assay type: functional;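 also: stress induced by proteasome inhibitor MG132 added 30 min after compound; luciferase reporter driven by HSF1 response element in NIH3T3 cells; actives raise luminescence as potentiators of the MG132 stress response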
T7 sequence (P38532 whole entry): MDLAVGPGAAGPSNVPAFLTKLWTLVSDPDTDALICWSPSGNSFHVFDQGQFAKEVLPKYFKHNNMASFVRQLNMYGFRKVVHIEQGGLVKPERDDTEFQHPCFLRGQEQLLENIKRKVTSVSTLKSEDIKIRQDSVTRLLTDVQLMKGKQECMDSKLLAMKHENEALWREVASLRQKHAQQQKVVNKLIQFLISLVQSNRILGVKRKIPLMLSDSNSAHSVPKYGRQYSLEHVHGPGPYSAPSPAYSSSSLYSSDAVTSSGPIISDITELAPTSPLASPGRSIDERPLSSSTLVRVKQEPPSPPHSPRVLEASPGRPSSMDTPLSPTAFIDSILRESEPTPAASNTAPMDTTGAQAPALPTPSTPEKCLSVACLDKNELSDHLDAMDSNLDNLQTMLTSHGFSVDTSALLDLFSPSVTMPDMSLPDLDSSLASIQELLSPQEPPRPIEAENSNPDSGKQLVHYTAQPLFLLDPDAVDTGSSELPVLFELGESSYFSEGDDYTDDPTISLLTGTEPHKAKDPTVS

[18] = target: T8, DNA repair protein RAD52 homolog (Homo sapiens, UniProt P43351); assay type: functional, biochemical
T8 sequence (P43351 whole entry): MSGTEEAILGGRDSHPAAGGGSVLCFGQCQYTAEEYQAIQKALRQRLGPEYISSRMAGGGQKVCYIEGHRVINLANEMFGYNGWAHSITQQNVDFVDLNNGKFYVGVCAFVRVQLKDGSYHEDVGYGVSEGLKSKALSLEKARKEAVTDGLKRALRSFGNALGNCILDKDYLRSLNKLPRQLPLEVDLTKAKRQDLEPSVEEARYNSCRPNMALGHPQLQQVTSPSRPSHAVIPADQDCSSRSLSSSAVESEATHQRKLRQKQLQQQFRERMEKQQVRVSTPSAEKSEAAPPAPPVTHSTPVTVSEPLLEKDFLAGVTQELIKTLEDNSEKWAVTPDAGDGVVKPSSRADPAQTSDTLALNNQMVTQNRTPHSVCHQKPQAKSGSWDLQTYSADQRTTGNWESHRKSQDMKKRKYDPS

Large T antigen, sequence (P03070 whole entry): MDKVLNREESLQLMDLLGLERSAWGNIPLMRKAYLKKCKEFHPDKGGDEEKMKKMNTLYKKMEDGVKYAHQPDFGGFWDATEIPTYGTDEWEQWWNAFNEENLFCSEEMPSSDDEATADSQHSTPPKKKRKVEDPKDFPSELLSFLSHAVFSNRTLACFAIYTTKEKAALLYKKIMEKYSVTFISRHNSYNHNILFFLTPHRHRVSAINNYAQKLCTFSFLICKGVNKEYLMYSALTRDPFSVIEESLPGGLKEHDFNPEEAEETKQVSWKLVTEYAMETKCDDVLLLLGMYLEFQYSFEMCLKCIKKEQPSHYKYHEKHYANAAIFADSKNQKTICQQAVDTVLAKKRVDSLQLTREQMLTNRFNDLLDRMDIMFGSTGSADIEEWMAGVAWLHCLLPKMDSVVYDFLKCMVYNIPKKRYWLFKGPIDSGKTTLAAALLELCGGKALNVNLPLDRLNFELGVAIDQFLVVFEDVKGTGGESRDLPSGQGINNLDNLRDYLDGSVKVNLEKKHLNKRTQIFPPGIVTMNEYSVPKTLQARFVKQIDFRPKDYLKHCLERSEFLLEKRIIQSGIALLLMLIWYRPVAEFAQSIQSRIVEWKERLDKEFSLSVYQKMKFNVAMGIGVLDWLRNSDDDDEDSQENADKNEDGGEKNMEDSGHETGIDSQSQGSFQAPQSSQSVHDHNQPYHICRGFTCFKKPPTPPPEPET

SMILES: OC(CON=C1c2ccccc2-c2ccccc21)CN1CCNCC1 (centres undefined)
IC50 [1]: 62.7 µM (active)
CC50 [2]: 100 µM (active)

SMILES: N=C(NOC(=O)N1c2ccccc2Sc2ccccc21)c1ccccc1
EC50 [4]: > 160 µM (inactive)
EC50 [5]: > 60 µM (not active)
EC50 [6]: 0.814 µM (active)
CC50 [2]: 100 µM (active)
EC50 [7]: 1.22 µM (active)

SMILES: Cc1cccn2c(CNCC3OCCc4ccccc43)c(C(=O)N3CCCCC3)nc12 (centres undefined)
IC50 [8]: 4.82 µM (active)
IC50 [9]: > 29.9 µM (inactive)
EC50 [10]: > 29.9 µM (inactive)
EC50 [11]: 4.38 µM (active)

SMILES: COc1ccc(Nc2cc(C)nc(N3CCOCC3)n2)cc1
IC50 [8]: > 29.9 µM (inactive)
IC50 [9]: > 29.9 µM (inactive)
EC50 [10]: > 29.9 µM (inactive)
EC50 [11]: 3.33 µM (active)

SMILES: Cc1cc(C)n(C(CC(=O)N2CCc3ccccc3C2)C(=O)O)n1 (centres undefined)
IC50 [8]: 4.32 µM (active)
IC50 [9]: > 29.9 µM (inactive)
IC50 [15]: > 100 µM (inactive)
EC50 [10]: > 29.9 µM (inactive)
IC50 [16]: 16.5 µM (active)
EC50 [11]: 1.06 µM (active)

SMILES: Cc1n[nH]c(-c2ccc(O)c(C)c2O)c1-c1cnn(-c2ccccc2)c1
EC50 [4]: > 160 µM (inconclusive)
EC50 [17]: > 260 µM (inactive)
IC50 [1]: 85.8 µM (active)
CC50 [2]: 98.9 µM (active)
EC50 [7]: > 38 µM (not active)

SMILES: CCCCCCCCN1C(=O)[C@H](CC(=O)NCCc2ccccc2OC)C[C@@]2(C(=O)OC)CCCCC=C12
IC50 [8]: 9.43 µM (active)
IC50 [9]: > 29.9 µM (inactive)
EC50 [10]: > 29.9 µM (inactive)
EC50 [11]: 7.05 µM (active)

SMILES: CC(Nc1ccnc2cc(Cl)ccc12)c1ccc(S(N)(=O)=O)cc1 (centres undefined)
IC50 [8]: > 29.9 µM (inactive)
IC50 [9]: > 29.9 µM (inactive)
EC50 [10]: > 29.9 µM (inactive)
EC50 [11]: 14.9 µM (inactive)

Further lines, with some results ahead:

EC50 [3]: > 67.5 µM (inactive)
SMILES: CCCSc1nsc(NC(=O)CC)n1

EC50 [3]: > 67.6 µM (inactive)
SMILES: Cc1ccc(-c2onc3ccc(C(=O)O)cc23)cc1

EC50 [3]: > 67.5 µM (inactive)
SMILES: Cc1cc(C(=O)CSc2ncccn2)c(C)n1Cc1ccco1

IC50 [12]: 17.7 µM (active)
IC50 [1]: 26.1 µM (active)
IC50 [13]: 21.3 µM (active)
SMILES: CC(C)C1N=C2c3ccccc3N=C(SCC(=O)c3ccc(O)c(O)c3)N2C1=O (centres undefined)
CC50 [2]: 100 µM (active)

AC50 [14]: 34 µM (active)
SMILES: c1cc2c3c(cccc3c1)C(N1CCCCC1)=N2

AC50 [14]: 32.9 µM (active)
AC50 [18]: 4.7 µM (active)
SMILES: CN(C)CCCNc1nc2cc(-c3cccc(Cl)c3)sc2c(=O)n1C
